Common to all, as to format: functional
Assay [1] is filed under the species Felis catus. Briefly: The compound was evaluated for inhibition of depressor response. More on the design: concentration or dose not given beside the values.
Assay [2] deals with Felis catus. Briefly: In vivo beta adrenoceptor blocking potency was determined by inhibition of tachycardia in cat.
The species named for assay [3] is Felis catus. Briefly: The compound was evaluated for inhibition of depressor response.

Usually Inhibition stands for how much of the control response was suppressed. In general, ED50 refers to the midpoint of the dose-response relation.

As to `NC(=O)c1ccccc1OCC(O)CNCCNC(=O)c1cccs1` (configuration not stated), the Inhibition in assay [1] was determined as 0%. The molecule also yielded an ED50 in assay [2] of 0.461 mg/kg.

`O=C(NCCNCC(O)COc1cccc2c1OCCO2)c1cccs1` (configuration not stated) showed an Inhibition in assay [1] of 40%.

In assay [3], `CC(=O)Nc1ccc(OCC(O)CNC(C)C)cc1` (configuration not stated) [PRACTOLOL] had an Inhibition of 8%. Moreover, the ED50 in assay [2] turned out to be 0.167 mg/kg.

Consider `CC(C)NCC(O)COc1cccc2ccccc12` (configuration not stated) [PROPRANOLOL], for which, in assay [1], the Inhibition stood at 85%. Moreover, the 50% effect level in assay [2] (ED50) was put at a dose of 0.062 mg/kg.

As for `O=C(NCCNCC(O)COc1cccc2c1OCCO2)Nc1ccccc1` (configuration not stated), in assay [1], the Inhibition came to 0%. The same molecule displayed an ED50 in assay [2] of 0.111 mg/kg.

`O=C(NCCNCC(O)COc1ccccc1)c1cccs1` (configuration not stated): the Inhibition in assay [1] came to 28%. In assay [2], this molecule showed an ED50 of 0.104 mg/kg.

As to `N#Cc1ccccc1OCC(O)CNCCNC(=O)Cc1csc(-c2ccc(Cl)cc2)n1` (configuration not stated), the Inhibition in assay [1] stood at 0%. Moreover, in assay [2], the ED50 is 0.087 mg/kg.

Regarding `N#Cc1ccccc1OCC(O)CNCCNC(=O)Cc1cc2ccccc2[nH]1` (configuration not stated), the Inhibition in assay [1] was found to be 6%. Besides, it took a dose of 0.049 mg/kg to reach the 50% effect level in assay [2] (ED50).

With `N#Cc1ccccc1OCC(O)CNCCNC(=O)c1ccco1` (configuration not stated), in assay [1], the Inhibition worked out at 28%. This molecule yielded a median effective dose (ED50) in assay [2] of 0.272 mg/kg.

The record behind these values is ChEMBL document CHEMBL1121980, “beta-adrenergic blocking agents. 24. Heterocyclic substituted 1-(aryloxy)-3-[[(amido)alkyl]amino]propan-2-ols” (1982).
